Reference: patent publication US20250197416A1, “PARTHENOLIDE DERIVATIVES AND USE THEREOF” (University of Rochester, priority 2022, published 2025)

Legend:
[1] = compared with parthenolide; cited from earlier work
[2] = test system: colon cancer cells (HCT-116); test: MTT cell viability assay, HCT-116; type: cell-based, human
Experimental: (§1) The anticancer activity of the compounds was determined using a MTT (3-[4,5-dimethylthiazol-2-yl]-2,5 diphenyl tetrazolium bromide) assay, which measures cell viability upon incubation of the cells with the compounds. […] Other notable structure-activity insights include the large impact on the linkage utilized for macrocyclization of 14-hydroxy-PTL-derived AB08 and AB24 on the cancer cell specificity of these molecules.
(§2) Experimental Procedures. All cancer cell lines were maintained in a 37° C. humidified incubator with 5% C02. A549, MDA-MB-231, PC-3, SK-N-MC, HeLa, SJSA-1, HCT-116, and SK-MEL-2 cells were cultured in DMEM medium (Gibco) supplemented with 10% FBS (Gibco) and 100 I.U./ml penicillin-streptomycin (Sigma). Adherent cells were dissociated using Accutase (Millipore) or trypsin-EDTA 0.25% (Gibco). Adherent cells were seeded in a 96-well plate at a density of 1000-20,000 cells per well in 180 μl complete DMEM media. Suspension cells were seeded in conical 96-well plates (Nunc) at a density of 30,000 cells per well in 90 ul of complete α-MEM media devoid of phenol red indicator. The plates were incubated in a humidified incubator for 16 hours prior to treatment. […] The resulting OD was measured at 550 nm using a multi-well plate reader (Tecan). […] The resulting absorbance was measured at 570 nm and 600 nm using a multi-well plate reader (Tecan).

[3] = test system: human cancer cells: PC3, SK-N-MC, MDA-MB-231, A549, HeLa, SK-MEL-2, SJSA-1, HCT-116; test: MTT cell viability assay, panel of cancer cell lines; type: cell-based; conditions: 24 hours; for anticancer activity profile (cytotoxicity spectrum / cancer-type specificity): reduction of cell viability at 10 μM and 20 μM; for anticancer activity (reduction of cancer cell viability): 10 μM and 20 μM
Experimental: as §1
Experimental Procedures. All cancer cell lines were maintained in a 37° C. humidified incubator with 5% C02. A549, MDA-MB-231, PC-3, SK-N-MC, HeLa, SJSA-1, HCT-116, and SK-MEL-2 cells were cultured in DMEM medium (Gibco) supplemented with 10% FBS (Gibco) and 100 I.U./ml penicillin-streptomycin (Sigma). Adherent cells were dissociated using Accutase (Millipore) or trypsin-EDTA 0.25% (Gibco). Adherent cells were seeded in a 96-well plate at a density of 1000-20,000 cells per well in 180 μl complete DMEM media. Suspension cells were seeded in conical 96-well plates (Nunc) at a density of 30,000 cells per well in 90 ul of complete α-MEM media devoid of phenol red indicator. The plates were incubated in a humidified incubator for 16 hours prior to treatment. PTL analogs were prepared as concentrated stocks (2 mM) in DMSO and stored at −30° C. Prior to testing, the analogs were diluted into complete cell culture medium and the media was supplemented with sterile DMSO (10% of final volume). For the initial cytotoxicity screening, the compounds were added to the cells in 20 μl aliquots to give a final concentration of 20 μM and 10 μM parthenologs and 1% DMSO (n=3). Following a 24-hour incubation, the culture media from the adherent cell plates (e.g., HeLa, A549) was aspirated and replaced with 100 pd of 1 mg/mL Thiazolyl Blue Tetrazolium Bromide (MTT, Fisher) in complete culture medium devoid of phenol red. After incubation at 37° C. for 1 hour, the plates were centrifuged (4000 rpm, 5 minutes), the media was removed and 100 ul of DMSO was added to solubilize the formazan product. The resulting OD was measured at 550 nm using a multi-well plate reader (Tecan). Suspension cells were treated for 24 hours in the presence or in the absence of the compounds at 10 μM and 20 μM, followed by measurement of cell viability using alamarBlue stain. After incubation, […] of AlamarBlue (Invitrogen) was added to each well and incubated until color change was observed, typically approximately 20-24 hours, in the control wells (1% DMSO in media, no compound). The resulting absorbance was measured at 570 nm and 600 nm using a multi-well plate reader (Tecan).

[4] = test system: breast cancer cells (MDA-MB-231); test: MTT cell viability assay, MDA-MB-231; type: cell-based, human; conditions: relative to PTL
Experimental: as §1, §2

[5] = test system: lung adenocarcinoma (A549); test: MTT cell viability assay, A549; type: cell-based, human; conditions: relative to PTL
Experimental: as §1, §2

[6] = test system: cervical (HeLa) cancer cells; test: MTT cell viability assay, HeLa; type: cell-based, human; conditions: 10 μM and 20 μM, 24 hours
Experimental: as §1, §2

leukemia cell line HL-60 = test: alamarBlue cell viability assay, HL-60; type: cell-based; conditions: 10 μM and 20 μM, 24 hours
Experimental: The antileukemic activity of the PTL analogs was evaluated using the leukemia cell line HL-60 and the leukemia stem cell line M9-ENL1. To measure the compound activity against hematologic cells, cells were treated for 24 hours in the presence or in the absence of the PTL analog at 10 μM and 20 μM, followed by measurement of cell viability using alamarBlue stain (FIG. 9).
as §2, with “treatment. PTL analogs were prepared as concentrated stocks (2 mM) in DMSO and stored at −30° C.” for “treatment.”

SMILES | anticancer activity profile (cytotoxicity spectrum / cancer-type specificity) [3] | anticancer activity (reduction of cancer cell viability) [3] | also measured
CC1=CCCC2(C)OC2C2OC(=O)C(C)C2CC1 (stereo not shown) |  |  | anticancer and anti-inflammatory activity after reduction of the α-methylene-γ-lactone group [1]: complete loss of activity
C=C1CC[C@H]2C(=C)C(=O)O[C@@H]2[C@H]2O[C@]2(C)CCC=CCCC(=O)OC1 [AB07] |  |  | increased potency compared to PTL, based on half-maximal lethal dose (LD50) ([2]; HCT-116, relative to PTL): > 3 fold
C=C(C)[C@@H]1C[C@H]2C(=C)C(=O)O[C@@H]2[C@H]2O[C@]2(C)CCC=CCCC(=O)O1 [AB10] | intermediate |  | 
C=C1C(=O)O[C@@H]2[C@H]3O[C@]3(C)CC[C@@H]3C(=CCn4c(=O)n(-c5ccccc5)c(=O)n43)CC[C@@H]12 [AB16] | intermediate | potent anticancer activity against at least six cell lines | 
C=C1C(=O)O[C@@H]2[C@H]3O[C@]3(C)CCC3C(=CCC(C#N)(C#N)C3(C#N)C#N)CC[C@@H]12 (stereo partly shown) [AB17] |  | lower activity against the same cell lines | 
C=C1C(=O)O[C@@H]2[C@H]3O[C@]3(C)CC[C@@H]3C(=CC[C@@H]4C(=O)OC(=O)[C@@H]43)CC[C@@H]12 [AB18] |  | lower activity against the same cell lines | 
C=C1C(=O)O[C@@H]2[C@H]3O[C@]3(C)CCC3C(=CCC4=C3C(O)C=CC4O)CC[C@@H]12 (stereo partly shown) [AB19] | intermediate | potent anticancer activity against at least six cell lines | 
C=C/C1=C\CC[C@@]2(C)O[C@@H]2[C@H]2OC(=O)C(=C)[C@@H]2CC1 [AB20] | high cancer-type specificity |  | 
C=C1CC[C@H]2C(=C)C(=O)O[C@@H]2[C@@H]2O[C@]2(C)CCC/C=C\Cc2ccccc2C(=O)OC1 [AB24] | broad-spectrum cytotoxicity |  | 
C=C(C)[C@@H]1C[C@H]2C(=C)C(=O)O[C@@H]2[C@@H]2O[C@]2(C)CCCC=CCc2ccccc2C(=O)O1 [AB25] | broad-spectrum cytotoxicity |  | enhanced potency compared to PTL, based on half-maximal lethal dose (LD50) [4]: 210 fold; enhanced potency compared to PTL, based on half-maximal lethal dose (LD50) [5]: 210 fold
C=CCC[C@@]1(C)O[C@@H]1[C@H]1OC(=O)C(=C)[C@@H]1CCC(=C)C=O [AB26] | high cancer-type specificity |  | 
C=C1C(=O)O[C@@H]2[C@H]3O[C@]3(C)CC/C=C3\COC(=O)O[C@H]3C[C@@H]12 [JMB02] |  | less potent anticancer activity | 
C=C1C(=O)O[C@@H]2[C@H]3O[C@]3(C)CC/C=C3\COS(=O)(=O)O[C@H]3C[C@@H]12 [JMB03] | high cancer-type specificity |  | selective activity against cervical (HeLa) cancer cells [6]: selective activity; selective activity against colon (HCT-116) cancer cells ([2]; 10 μM and 20 μM, 24 hours): selective activity
C=C1C(=O)O[C@@H]2[C@H]3O[C@]3(C)CCC(Sc3ccccc3)C(C=O)C(=O)C[C@@H]12 (stereo partly shown) [JMB06] |  |  | anticancer activity against HL-60 (leukemia cell line HL-60): relatively selective anticancer activity
C=C1C(=O)O[C@@H]2[C@H]3O[C@]3(C)CCC(C3C=CC(=O)O3)C(C=O)C(=O)C[C@@H]12 (stereo partly shown) [JMB07] |  |  | anticancer activity against HL-60 (leukemia cell line HL-60): relatively selective anticancer activity
C=C1C(=O)O[C@@H]2[C@H]3O[C@]3(C)CC/C=C(\C)C(=O)C[C@@H]12 [JMB08] | intermediate |  | 
